Test results published in the NIST ThermoML archive (doi:10.1016/j.jct.2006.08.009).
± gives the expanded uncertainty stated by the source.

Assay: mn = molality of the nth substance listed, in mol/kg
Details: 350 kPa, Liquid; for apparent molar heat capacity: Extra sensitive DSC

OC[C@@H](O)[C@@H](O)CO [meso-1,2,3,4-butanetetrol] + O
Details | apparent molar heat capacity [J/K/mol] | mass density [kg/m3]
318.15 K, m1 = 0.4998 | – | 1006.84 ± 0.18
318.15 K, m1 = 1 | – | 1021.96 ± 0.21
318.15 K, m1 = 2.002 | – | 1048.89 ± 0.27
318.15 K, m1 = 3.003 | – | 1071.67 ± 0.32
323.15 K, m1 = 0.0201 | 318 ± 77 | –
323.15 K, m1 = 0.05 | 338 ± 32 | –
323.15 K, m1 = 0.0999 | 334.4 ± 16 | –
323.15 K, m1 = 0.2501 | 332.7 ± 7 | –
323.15 K, m1 = 0.4998 | 331.6 ± 4.2 | –
323.15 K, m1 = 1 | 330.1 ± 3 | –
323.15 K, m1 = 2.002 | 324.5 ± 2.4 | –
323.15 K, m1 = 3.003 | 325.24 ± 2.2 | –
328.15 K, m1 = 0.0201 | 322 ± 75 | 986.49 ± 0.2
328.15 K, m1 = 0.05 | 341 ± 30 | 987.47 ± 0.19
328.15 K, m1 = 0.0999 | 337.8 ± 16 | 988.94 ± 0.19
328.15 K, m1 = 0.2501 | 336 ± 6.8 | 994.21 ± 0.18
328.15 K, m1 = 0.4998 | 335 ± 4.2 | 1002.15 ± 0.17
328.15 K, m1 = 1 | 333.5 ± 3 | 1017.15 ± 0.2
328.15 K, m1 = 2.002 | 328 ± 2.4 | 1043.78 ± 0.26
328.15 K, m1 = 3.003 | 328.66 ± 2.2 | 1066.4 ± 0.31
333.15 K, m1 = 0.0201 | 325 ± 75 | –
333.15 K, m1 = 0.05 | 344 ± 30 | –
333.15 K, m1 = 0.0999 | 341 ± 16 | –
333.15 K, m1 = 0.2501 | 339.2 ± 6.8 | –
333.15 K, m1 = 0.4998 | 338.1 ± 4 | –
333.15 K, m1 = 1 | 336.7 ± 3 | –
333.15 K, m1 = 2.002 | 331.2 ± 2.4 | –
333.15 K, m1 = 3.003 | 331.8 ± 2.1 | –
338.15 K, m1 = 0.0201 | 328 ± 73 | 981.39 ± 0.21
338.15 K, m1 = 0.05 | 347 ± 30 | 982.33 ± 0.2
338.15 K, m1 = 0.0999 | 343.9 ± 15 | 983.83 ± 0.2
338.15 K, m1 = 0.2501 | 342 ± 6.6 | 988.99 ± 0.19
338.15 K, m1 = 0.4998 | 340.9 ± 4 | 996.87 ± 0.17
338.15 K, m1 = 1 | 339.5 ± 2.8 | 1011.73 ± 0.19
338.15 K, m1 = 2.002 | 334.2 ± 2.3 | 1038.15 ± 0.25
338.15 K, m1 = 3.003 | 334.7 ± 2.1 | 1060.56 ± 0.29
343.15 K, m1 = 0.0201 | 330 ± 72 | –
343.15 K, m1 = 0.05 | 350 ± 30 | –
343.15 K, m1 = 0.0999 | 346.4 ± 15 | –
343.15 K, m1 = 0.2501 | 344.5 ± 6.6 | –
343.15 K, m1 = 0.4998 | 343.5 ± 4 | –
343.15 K, m1 = 1 | 342.1 ± 2.8 | –
343.15 K, m1 = 2.002 | 336.9 ± 2.3 | –
343.15 K, m1 = 3.003 | 337.33 ± 2.1 | –
348.15 K, m1 = 0.0201 | 332 ± 72 | 975.69 ± 0.22
348.15 K, m1 = 0.05 | 352 ± 28 | 976.65 ± 0.22
348.15 K, m1 = 0.0999 | 348.7 ± 15 | 978.12 ± 0.21
348.15 K, m1 = 0.2501 | 346.8 ± 6.5 | 983.23 ± 0.2
348.15 K, m1 = 0.4998 | 345.8 ± 4 | 991.14 ± 0.19
348.15 K, m1 = 1 | 344.4 ± 2.8 | 1005.88 ± 0.18
348.15 K, m1 = 2.002 | 339.4 ± 2.3 | 1032.07 ± 0.24
348.15 K, m1 = 3.003 | 339.73 ± 2.1 | 1054.35 ± 0.28
353.15 K, m1 = 0.0201 | 334 ± 70 | –
353.15 K, m1 = 0.05 | 354 ± 28 | –
353.15 K, m1 = 0.0999 | 350.7 ± 15 | –
353.15 K, m1 = 0.2501 | 348.9 ± 6.5 | –
353.15 K, m1 = 0.4998 | 347.8 ± 3.9 | –
353.15 K, m1 = 1 | 346.5 ± 2.8 | –
353.15 K, m1 = 2.002 | 341.77 ± 2.3 | –
353.15 K, m1 = 3.003 | 341.88 ± 2.1 | –
358.15 K, m1 = 0.0201 | 336 ± 70 | 969.51 ± 0.23
358.15 K, m1 = 0.05 | 356 ± 28 | 970.13 ± 0.23
358.15 K, m1 = 0.0999 | 352.4 ± 15 | 971.92 ± 0.23
358.15 K, m1 = 0.2501 | 350.5 ± 6.3 | 976.99 ± 0.22
358.15 K, m1 = 0.4998 | 349.5 ± 3.9 | 984.82 ± 0.2
358.15 K, m1 = 1 | 348.2 ± 2.8 | 999.52 ± 0.17
358.15 K, m1 = 2.002 | 343.88 ± 2.3 | 1025.52 ± 0.22
358.15 K, m1 = 3.003 | 343.6 ± 2 | 1047.59 ± 0.27
363.15 K, m1 = 0.0201 | 337 ± 68 | –
363.15 K, m1 = 0.05 | 357 ± 28 | –
363.15 K, m1 = 0.0999 | 353 ± 14 | –
363.15 K, m1 = 0.2501 | 351.1 ± 6.3 | –
363.15 K, m1 = 0.4998 | 350 ± 3.9 | –
363.15 K, m1 = 1 | 348.7 ± 2.8 | –
363.15 K, m1 = 2.002 | 345.8 ± 2.3 | –
363.15 K, m1 = 3.003 | 344.06 ± 2.1 | –
368.15 K, m1 = 0.0201 | – | 962.63 ± 0.25
368.15 K, m1 = 0.05 | – | 963.59 ± 0.24
368.15 K, m1 = 0.0999 | – | 965.08 ± 0.24
368.15 K, m1 = 0.2501 | – | 970.07 ± 0.23
368.15 K, m1 = 0.4998 | – | 978.02 ± 0.22
368.15 K, m1 = 1 | – | 992.7 ± 0.19
368.15 K, m1 = 2.002 | – | 1018.73 ± 0.21
368.15 K, m1 = 3.003 | – | 1041.19 ± 0.26
